# Results taken from PubChem BioAssay (NCI).
#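 At the GI50, growth is halved. TGI: total growth inhibition.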
# How the values were obtained:
# Assay in all cases: NCI-60 cell line screen, 384-well format
# EKVX NSCLC = test system: EKVX NSCLC
# HT29 colon = test system: HT29 colon
# IGROV1 ovarian = test system: IGROV1 ovarian
# SK-MEL-5 melanoma = test system: SK-MEL-5 melanoma
# PC-3 prostate = test system: PC-3 prostate
# NCI/ADR-RES ovarian = test system: NCI/ADR-RES ovarian
# RXF 393 renal = test system: RXF 393 renal
# HCT-15 colon = test system: HCT-15 colon
# UACC-257 melanoma = test system: UACC-257 melanoma
# HOP-62 NSCLC = test system: HOP-62 NSCLC
# A498 renal = test system: A498 renal
# LOX IMVI melanoma = test system: LOX IMVI melanoma
# BT-549 breast = test system: BT-549 breast
structure (smiles),measurement,setting,value
CNC(=O)c1cc(Oc2ccc(NC(=O)Nc3ccc(Cl)c(C(F)(F)F)c3)cc2)ccn1,GI50,EKVX NSCLC,2900 nM
same,TGI,EKVX NSCLC,6800 nM
same,GI50,HT29 colon,2350 nM
same,TGI,HT29 colon,5960 nM
same,GI50,IGROV1 ovarian,2460 nM
same,TGI,IGROV1 ovarian,5910 nM
same,GI50,SK-MEL-5 melanoma,842 nM
same,TGI,SK-MEL-5 melanoma,2440 nM
same,GI50,PC-3 prostate,2710 nM
same,TGI,PC-3 prostate,5910 nM
same,GI50,NCI/ADR-RES ovarian,2120 nM
same,TGI,NCI/ADR-RES ovarian,4390 nM
same,GI50,RXF 393 renal,2200 nM
same,TGI,RXF 393 renal,4430 nM
same,GI50,HCT-15 colon,1920 nM
same,TGI,HCT-15 colon,4030 nM
same,GI50,UACC-257 melanoma,2320 nM
same,TGI,UACC-257 melanoma,4620 nM
same,GI50,HOP-62 NSCLC,1840 nM
same,TGI,HOP-62 NSCLC,3420 nM
same,GI50,A498 renal,2370 nM
same,TGI,A498 renal,4740 nM
same,GI50,LOX IMVI melanoma,2190 nM
same,TGI,LOX IMVI melanoma,4560 nM
same,GI50,BT-549 breast,2290 nM
same,TGI,BT-549 breast,4040 nM
